Patent US20230085307A1, “PYRIDAZINONE COMPOUND AND HERBICIDE” (NISSAN CHEMICAL CORPORATION, priority 2019, published 2023)

Tested on: lambsquarters
Experiment: Test Example 5: herbicidal effect by foliage application, plastic box (Table 20, symbol O)
Assay type: in vivo, lambsquarters (Chenopodium album)
Conditions: foliage application, 320 g/ha, three weeks after application
Summary of the method: (§1)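 Post-emergence foliar test in sterilized diluvial soil. Compound applied as water-diluted emulsion at a predetermined rate to 14-day-old plants; evaluation at three weeks.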

| Compound | O: lambsquarters, herbicidal effect grade |
| --- | --- |
| Cc1nn(C)c(=O)c(-c2c(-c3ccc(Oc4ncc(C(F)(F)F)cc4Cl)cc3)sc3ccc(F)cc23)c1O [2-467] | 4 (Herbicidal rate of 70% or more and less than 90%) |
| COc1ccccc1-c1sc2cc(F)ccc2c1-c1c(OC(=O)c2ccccc2C)c(C)nn(C)c1=O [3-022] | 0 (Herbicidal rate of 5% or less (almost no effect)) |
| CCOc1ccccc1-c1sc2cc(O)ccc2c1-c1c(O)c(C)nn(C)c1=O [3-097] | 3 (Herbicidal rate of 40% or more and less than 70%) |

Tested on: chickweed
Experiment: Test Example 5: herbicidal effect by foliage application, plastic box (Table 20, symbol P)
Assay type: in vivo, common chickweed (Stellaria media)
Conditions: foliage application, 320 g/ha, three weeks after application
Summary of the method: as §1

| Compound | P: chickweed, herbicidal effect grade |
| --- | --- |
| Cc1nn(C)c(=O)c(-c2c(-c3ccc(Oc4ncc(C(F)(F)F)cc4Cl)cc3)sc3ccc(F)cc23)c1O [2-467] | 3 (Herbicidal rate of 40% or more and less than 70%) |
| COc1ccccc1-c1sc2cc(F)ccc2c1-c1c(OC(=O)c2ccccc2C)c(C)nn(C)c1=O [3-022] | 3 (Herbicidal rate of 40% or more and less than 70%) |
| CCOc1ccccc1-c1sc2cc(O)ccc2c1-c1c(O)c(C)nn(C)c1=O [3-097] | 3 (Herbicidal rate of 40% or more and less than 70%) |

Tested on: Chinese sprangletop
Experiment: Test Example 3: herbicidal effect by foliage application, Wagner pot (Table 18, symbol D)
Assay type: in vivo, chinese sprangletop (Leptochloa chinensis)
Conditions: 320 g/ha
Summary of the method: (§2)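 Plants were sown in alluvial soil held under 0.1–0.5 cm standing water and grown 14 days in a greenhouse at 25–30 °C. An emulsifiable formulation, water-diluted to the set dose, was then sprayed onto the foliage, and effects were scored three weeks later using previously defined criteria.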

| Compound | herbicidal effect on Chinese sprangletop (D) |
| --- | --- |
| CCOc1ccccc1-c1sc2cc(O)ccc2c1-c1c(O)c(C)nn(C)c1=O [3-097] | 4 (Herbicidal rate of 70% or more and less than 90%) |

Same assay, conditions: amount of applied herbicide 320 g/ha

| Compound | herbicidal effect on D: Chinese sprangletop |
| --- | --- |
| Cc1nn(C)c(=O)c(-c2c(-c3ccc(Oc4ncc(C(F)(F)F)cc4Cl)cc3)sc3ccc(F)cc23)c1O [2-467] | 4 (Herbicidal rate of 70% or more and less than 90%) |
| COc1ccccc1-c1sc2cc(F)ccc2c1-c1c(OC(=O)c2ccccc2C)c(C)nn(C)c1=O [3-022] | 2 (Herbicidal rate of 20% or more and less than 40%) |

Tested on: blackgrass
Experiment: Test Example 5: herbicidal effect by foliage application, plastic box (Table 20, symbol J)
Assay type: in vivo, blackgrass (Alopecurus myosuroides)
Conditions: foliage application, 320 g/ha, three weeks after application
Summary of the method: as §1

| Compound | J: blackgrass, herbicidal effect grade |
| --- | --- |
| Cc1nn(C)c(=O)c(-c2c(-c3ccc(Oc4ncc(C(F)(F)F)cc4Cl)cc3)sc3ccc(F)cc23)c1O [2-467] | 0 (Herbicidal rate of 5% or less (almost no effect)) |
| COc1ccccc1-c1sc2cc(F)ccc2c1-c1c(OC(=O)c2ccccc2C)c(C)nn(C)c1=O [3-022] | 0 (Herbicidal rate of 5% or less (almost no effect)) |
| CCOc1ccccc1-c1sc2cc(O)ccc2c1-c1c(O)c(C)nn(C)c1=O [3-097] | 0 (Herbicidal rate of 5% or less (almost no effect)) |

Tested on: southern crabgrass
Experiment: Test Example 5: herbicidal effect by foliage application, plastic box (Table 20, symbol F)
Assay type: in vivo, southern crabgrass (Digitaria ciliaris)
Conditions: foliage application, 320 g/ha, three weeks after application
Summary of the method: as §1

| Compound | F: southern crabgrass, herbicidal effect grade |
| --- | --- |
| Cc1nn(C)c(=O)c(-c2c(-c3ccc(Oc4ncc(C(F)(F)F)cc4Cl)cc3)sc3ccc(F)cc23)c1O [2-467] | 0 (Herbicidal rate of 5% or less (almost no effect)) |
| COc1ccccc1-c1sc2cc(F)ccc2c1-c1c(OC(=O)c2ccccc2C)c(C)nn(C)c1=O [3-022] | 0 (Herbicidal rate of 5% or less (almost no effect)) |
| CCOc1ccccc1-c1sc2cc(O)ccc2c1-c1c(O)c(C)nn(C)c1=O [3-097] | 4 (Herbicidal rate of 70% or more and less than 90%) |

Tested on: wild oat
Experiment: Test Example 5: herbicidal effect by foliage application, plastic box (Table 20, symbol I)
Assay type: in vivo, wild oat (Avena fatua)
Conditions: foliage application, 320 g/ha, three weeks after application
Summary of the method: as §1

| Compound | I: wild oat, herbicidal effect grade |
| --- | --- |
| Cc1nn(C)c(=O)c(-c2c(-c3ccc(Oc4ncc(C(F)(F)F)cc4Cl)cc3)sc3ccc(F)cc23)c1O [2-467] | 0 (Herbicidal rate of 5% or less (almost no effect)) |
| COc1ccccc1-c1sc2cc(F)ccc2c1-c1c(OC(=O)c2ccccc2C)c(C)nn(C)c1=O [3-022] | 0 (Herbicidal rate of 5% or less (almost no effect)) |
| CCOc1ccccc1-c1sc2cc(O)ccc2c1-c1c(O)c(C)nn(C)c1=O [3-097] | 1 (Herbicidal rate of 5% or more and less than 20%) |

Tested on: Italian ryegrass
Experiment: Test Example 5: herbicidal effect by foliage application, plastic box (Table 20, symbol K)
Assay type: in vivo, Italian ryegrass (Lolium multiflorum)
Conditions: foliage application, 320 g/ha, three weeks after application
Summary of the method: as §1

| Compound | K: Italian ryegrass, herbicidal effect grade |
| --- | --- |
| Cc1nn(C)c(=O)c(-c2c(-c3ccc(Oc4ncc(C(F)(F)F)cc4Cl)cc3)sc3ccc(F)cc23)c1O [2-467] | 0 (Herbicidal rate of 5% or less (almost no effect)) |
| COc1ccccc1-c1sc2cc(F)ccc2c1-c1c(OC(=O)c2ccccc2C)c(C)nn(C)c1=O [3-022] | 0 (Herbicidal rate of 5% or less (almost no effect)) |
| CCOc1ccccc1-c1sc2cc(O)ccc2c1-c1c(O)c(C)nn(C)c1=O [3-097] | 0 (Herbicidal rate of 5% or less (almost no effect)) |

Tested on: barnyard grass
Experiment: Test Example 5: herbicidal effect by foliage application, plastic box (Table 20, symbol H)
Assay type: in vivo, barnyard grass (Echinochloa crus-galli)
Conditions: foliage application, 320 g/ha, three weeks after application
Summary of the method: as §1

| Compound | H: barnyard grass, herbicidal effect grade |
| --- | --- |
| Cc1nn(C)c(=O)c(-c2c(-c3ccc(Oc4ncc(C(F)(F)F)cc4Cl)cc3)sc3ccc(F)cc23)c1O [2-467] | 1 (Herbicidal rate of 5% or more and less than 20%) |
| COc1ccccc1-c1sc2cc(F)ccc2c1-c1c(OC(=O)c2ccccc2C)c(C)nn(C)c1=O [3-022] | 0 (Herbicidal rate of 5% or less (almost no effect)) |
| CCOc1ccccc1-c1sc2cc(O)ccc2c1-c1c(O)c(C)nn(C)c1=O [3-097] | 2 (Herbicidal rate of 20% or more and less than 40%) |

Tested on: persian speedwell
Experiment: Test Example 5: herbicidal effect by foliage application, plastic box (Table 20, symbol R)
Assay type: in vivo, Persian speedwell (Veronica persica)
Conditions: foliage application, 320 g/ha, three weeks after application
Summary of the method: as §1

| Compound | R: persian speedwell, herbicidal effect grade |
| --- | --- |
| Cc1nn(C)c(=O)c(-c2c(-c3ccc(Oc4ncc(C(F)(F)F)cc4Cl)cc3)sc3ccc(F)cc23)c1O [2-467] | 4 (Herbicidal rate of 70% or more and less than 90%) |
| COc1ccccc1-c1sc2cc(F)ccc2c1-c1c(OC(=O)c2ccccc2C)c(C)nn(C)c1=O [3-022] | 0 (Herbicidal rate of 5% or less (almost no effect)) |
| CCOc1ccccc1-c1sc2cc(O)ccc2c1-c1c(O)c(C)nn(C)c1=O [3-097] | 3 (Herbicidal rate of 40% or more and less than 70%) |

Tested on: velvetleaf
Experiment: Test Example 5: herbicidal effect by foliage application, plastic box (Table 20, symbol M)
Assay type: in vivo, velvetleaf (Abutilon theophrasti)
Conditions: foliage application, 320 g/ha, three weeks after application
Summary of the method: as §1

| Compound | M: velvetleaf, herbicidal effect grade |
| --- | --- |
| Cc1nn(C)c(=O)c(-c2c(-c3ccc(Oc4ncc(C(F)(F)F)cc4Cl)cc3)sc3ccc(F)cc23)c1O [2-467] | 1 (Herbicidal rate of 5% or more and less than 20%) |
| COc1ccccc1-c1sc2cc(F)ccc2c1-c1c(OC(=O)c2ccccc2C)c(C)nn(C)c1=O [3-022] | 0 (Herbicidal rate of 5% or less (almost no effect)) |
| CCOc1ccccc1-c1sc2cc(O)ccc2c1-c1c(O)c(C)nn(C)c1=O [3-097] | 3 (Herbicidal rate of 40% or more and less than 70%) |

Tested on: barnyard grass
Experiment: Test Example 3: herbicidal effect by foliage application, Wagner pot (Table 18, symbol H)
Assay type: in vivo, barnyard grass (Echinochloa crus-galli)
Conditions: 320 g/ha
Summary of the method: as §2

| Compound | herbicidal effect on barnyard grass (H) |
| --- | --- |
| CCOc1ccccc1-c1sc2cc(O)ccc2c1-c1c(O)c(C)nn(C)c1=O [3-097] | 4 (Herbicidal rate of 70% or more and less than 90%) |

Same assay, conditions: amount of applied herbicide 320 g/ha

| Compound | herbicidal effect on H: barnyard grass |
| --- | --- |
| Cc1nn(C)c(=O)c(-c2c(-c3ccc(Oc4ncc(C(F)(F)F)cc4Cl)cc3)sc3ccc(F)cc23)c1O [2-467] | 3 (Herbicidal rate of 40% or more and less than 70%) |
| COc1ccccc1-c1sc2cc(F)ccc2c1-c1c(OC(=O)c2ccccc2C)c(C)nn(C)c1=O [3-022] | 4 (Herbicidal rate of 70% or more and less than 90%) |

Tested on: windgrass
Experiment: Test Example 5: herbicidal effect by foliage application, plastic box (Table 20, symbol L)
Assay type: in vivo, windgrass (Apera spica-venti)
Conditions: foliage application, 320 g/ha, three weeks after application
Summary of the method: as §1

| Compound | L: windgrass, herbicidal effect grade |
| --- | --- |
| Cc1nn(C)c(=O)c(-c2c(-c3ccc(Oc4ncc(C(F)(F)F)cc4Cl)cc3)sc3ccc(F)cc23)c1O [2-467] | 5 (Herbicidal rate of 90% or more (almost completely withered)) |
| COc1ccccc1-c1sc2cc(F)ccc2c1-c1c(OC(=O)c2ccccc2C)c(C)nn(C)c1=O [3-022] | 0 (Herbicidal rate of 5% or less (almost no effect)) |
| CCOc1ccccc1-c1sc2cc(O)ccc2c1-c1c(O)c(C)nn(C)c1=O [3-097] | 2 (Herbicidal rate of 20% or more and less than 40%) |

Tested on: redroot pigweed
Experiment: Test Example 5: herbicidal effect by foliage application, plastic box (Table 20, symbol N)
Assay type: in vivo, redroot pigweed (Amaranthus retroflexus)
Conditions: foliage application, 320 g/ha, three weeks after application
Summary of the method: as §1

| Compound | N: redroot pigweed, herbicidal effect grade |
| --- | --- |
| Cc1nn(C)c(=O)c(-c2c(-c3ccc(Oc4ncc(C(F)(F)F)cc4Cl)cc3)sc3ccc(F)cc23)c1O [2-467] | 3 (Herbicidal rate of 40% or more and less than 70%) |
| COc1ccccc1-c1sc2cc(F)ccc2c1-c1c(OC(=O)c2ccccc2C)c(C)nn(C)c1=O [3-022] | 3 (Herbicidal rate of 40% or more and less than 70%) |
| CCOc1ccccc1-c1sc2cc(O)ccc2c1-c1c(O)c(C)nn(C)c1=O [3-097] | 4 (Herbicidal rate of 70% or more and less than 90%) |

Tested on: rice flat sedge
Experiment: Test Example 3: herbicidal effect by foliage application, Wagner pot (Table 18, symbol E)
Assay type: in vivo, rice flat sedge (Cyperus iria)
Conditions: 320 g/ha
Summary of the method: as §2

| Compound | herbicidal effect on rice flat sedge (E) |
| --- | --- |
| CCOc1ccccc1-c1sc2cc(O)ccc2c1-c1c(O)c(C)nn(C)c1=O [3-097] | 3 (Herbicidal rate of 40% or more and less than 70%) |

Same assay, conditions: amount of applied herbicide 320 g/ha

| Compound | herbicidal effect on E: rice flat sedge |
| --- | --- |
| Cc1nn(C)c(=O)c(-c2c(-c3ccc(Oc4ncc(C(F)(F)F)cc4Cl)cc3)sc3ccc(F)cc23)c1O [2-467] | 4 (Herbicidal rate of 70% or more and less than 90%) |
| COc1ccccc1-c1sc2cc(F)ccc2c1-c1c(OC(=O)c2ccccc2C)c(C)nn(C)c1=O [3-022] | 0 (Herbicidal rate of 5% or less (almost no effect)) |

Tested on: green foxtail
Experiment: Test Example 5: herbicidal effect by foliage application, plastic box (Table 20, symbol G)
Assay type: in vivo, green foxtail (Setaria viridis)
Conditions: foliage application, 320 g/ha, three weeks after application
Summary of the method: as §1

| Compound | G: green foxtail, herbicidal effect grade |
| --- | --- |
| Cc1nn(C)c(=O)c(-c2c(-c3ccc(Oc4ncc(C(F)(F)F)cc4Cl)cc3)sc3ccc(F)cc23)c1O [2-467] | 2 (Herbicidal rate of 20% or more and less than 40%) |
| COc1ccccc1-c1sc2cc(F)ccc2c1-c1c(OC(=O)c2ccccc2C)c(C)nn(C)c1=O [3-022] | 0 (Herbicidal rate of 5% or less (almost no effect)) |
| CCOc1ccccc1-c1sc2cc(O)ccc2c1-c1c(O)c(C)nn(C)c1=O [3-097] | 5 (Herbicidal rate of 90% or more (almost completely withered)) |
